Measured values as given in patent publication US20100099561A1, “HETEROBICYCLIC ALKYLTHIO-BRIDGED ISOXAZOLINES” (E.I. DU PONT DE NEMOURS AND COMPANY, priority 2008, published 2010).

Key:
Type in all cases: in vivo
[1] = test system: barnyardgrass (Echinochloa crus-galli); assay: Test A preemergence, barnyardgrass; details: 0 to 100 scale (0 no effect, 100 complete control)
Procedure, shortened: (§1)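 Seeds planted in loam–sand blend; compounds in non-phytotoxic solvent with surfactant applied as directed preemergence soil spray, or postemergence to plants 2–10 cm tall at one- to two-leaf stage. After ~10 days in greenhouse, injury rated visually versus untreated controls on 0–100 scale (100 = complete control).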

[2] = test system: large crabgrass (Digitaria sanguinalis); assay: Test A preemergence, large crabgrass; details: 0 to 100 scale (0 no effect, 100 complete control)
Procedure, shortened: as §1

[3] = test system: giant foxtail (Setaria faberi); assay: Test A preemergence, giant foxtail; details: 0 to 100 scale (0 no effect, 100 complete control)
Procedure, shortened: as §1

[4] = test system: morningglory (Ipomoea spp.); assay: Test A preemergence, morningglory; details: 0 to 100 scale (0 no effect, 100 complete control)
Procedure, shortened: as §1

[5] = test system: pigweed (Amaranthus retroflexus); assay: Test A preemergence, pigweed; details: 0 to 100 scale (0 no effect, 100 complete control)
Procedure, shortened: as §1

[6] = test system: velvetleaf (Abutilon theophrasti); assay: Test A preemergence, velvetleaf; details: 0 to 100 scale (0 no effect, 100 complete control)
Procedure, shortened: as §1

[7] = test system: wheat (Triticum aestivum); assay: Test A preemergence, wheat; details: 0 to 100 scale (0 no effect, 100 complete control)
Procedure, shortened: as §1

corn (Zea mays) [8] = assay: Test A preemergence, corn; details: 0 to 100 scale (0 no effect, 100 complete control)
Procedure, shortened: as §1

[9] = test system: barnyardgrass (Echinochloa crus-galli); assay: Test A postemergence, barnyardgrass; details: 0 to 100 scale (0 no effect, 100 complete control)
Procedure, shortened: as §1

[10] = test system: large crabgrass (Digitaria sanguinalis); assay: Test A postemergence, large crabgrass; details: 0 to 100 scale (0 no effect, 100 complete control)
Procedure, shortened: as §1

[11] = test system: giant foxtail (Setaria faberi); assay: Test A postemergence, giant foxtail; details: 0 to 100 scale (0 no effect, 100 complete control)
Procedure, shortened: as §1

[12] = test system: morningglory (Ipomoea spp.); assay: Test A postemergence, morningglory; details: 0 to 100 scale (0 no effect, 100 complete control)
Procedure, shortened: as §1

[13] = test system: pigweed (Amaranthus retroflexus); assay: Test A postemergence, pigweed; details: 0 to 100 scale (0 no effect, 100 complete control)
Procedure, shortened: as §1

[14] = test system: velvetleaf (Abutilon theophrasti); assay: Test A postemergence, velvetleaf; details: 0 to 100 scale (0 no effect, 100 complete control)
Procedure, shortened: as §1

[15] = test system: wheat (Triticum aestivum); assay: Test A postemergence, wheat; details: 0 to 100 scale (0 no effect, 100 complete control)
Procedure, shortened: as §1

corn (Zea mays) [16] = assay: Test A postemergence, corn; details: 0 to 100 scale (0 no effect, 100 complete control)
Procedure, shortened: as §1

rice (Oryza sativa) = assay: Test B flooded paddy test, rice; details: Flood, scale 0 to 100
Procedure, shortened: (§2)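 Step one: raise plants to 2 leaves. Step two: flood pots 3 cm over the soil and apply compound into the water, keeping this depth. Step three: after 13–15 greenhouse days, score visually versus controls, 0–100, where 100 means complete control.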

[17] = test system: umbrella sedge (Cyperus difformis); assay: Test B flooded paddy test, umbrella sedge; details: Flood, scale 0 to 100
Procedure, shortened: as §2

[18] = test system: ducksalad (Heteranthera limosa); assay: Test B flooded paddy test, ducksalad; details: Flood, scale 0 to 100
Procedure, shortened: as §2

[19] = test system: barnyardgrass (Echinochloa crus-galli); assay: Test B flooded paddy test, barnyardgrass; details: Flood
Procedure, shortened: as §2

[20] = 250 g ai/ha, scale 0 to 100 (0 no effect, 100 complete control)

CC1(C)CC([S+]([O-])Cc2c(C(F)(F)F)nc3n(c2=O)CCCCC3)=NO1 (stereo not shown) [Compound 34]
Plant response rating, Barnyardgrass ([1]; 125 g ai/ha): 0
Plant response rating, Barnyardgrass ([1]; 500 g ai/ha): 70
Plant response rating, Crabgrass, Large ([2]; 125 g ai/ha): 0
Plant response rating, Crabgrass, Large ([2]; 500 g ai/ha): 80
Plant response rating, Foxtail, Giant ([3]; 125 g ai/ha): 0
Plant response rating, Foxtail, Giant ([3]; 500 g ai/ha): 90
Plant response rating, Morningglory ([4]; 125 g ai/ha): 0
Plant response rating, Morningglory ([4]; 500 g ai/ha): 0
Plant response rating, Pigweed ([5]; 125 g ai/ha): 0
Plant response rating, Pigweed ([5]; 500 g ai/ha): 0
Plant response rating, Velvetleaf ([6]; 125 g ai/ha): 0
Plant response rating, Velvetleaf ([6]; 500 g ai/ha): 0
Plant response rating, Wheat ([7]; 125 g ai/ha): 0
Plant response rating, Wheat ([7]; 500 g ai/ha): 50
Plant response rating, Corn (corn (Zea mays) [8]; 125 g ai/ha): 0
Plant response rating, Corn (corn (Zea mays) [8]; 500 g ai/ha): 0
Plant response rating, Barnyardgrass ([9]; 125 g ai/ha): 0
Plant response rating, Barnyardgrass ([9]; 500 g ai/ha): 50
Plant response rating, Crabgrass, Large ([10]; 125 g ai/ha): 0
Plant response rating, Crabgrass, Large ([10]; 500 g ai/ha): 40
Plant response rating, Foxtail, Giant ([11]; 125 g ai/ha): 0
Plant response rating, Foxtail, Giant ([11]; 500 g ai/ha): 60
Plant response rating, Morningglory ([12]; 125 g ai/ha): 30
Plant response rating, Morningglory ([12]; 500 g ai/ha): 40
Plant response rating, Pigweed ([13]; 125 g ai/ha): 0
Plant response rating, Pigweed ([13]; 500 g ai/ha): 0
Plant response rating, Velvetleaf ([14]; 125 g ai/ha): 0
Plant response rating, Velvetleaf ([14]; 500 g ai/ha): 0
Plant response rating, Wheat ([15]; 125 g ai/ha): 0
Plant response rating, Wheat ([15]; 500 g ai/ha): 20
Plant response rating, Corn (corn (Zea mays) [16]; 125 g ai/ha): 0
Plant response rating, Corn (corn (Zea mays) [16]; 500 g ai/ha): 0
Plant response rating, Rice (rice (Oryza sativa); 31 g ai/ha): 0
Plant response rating, Rice (rice (Oryza sativa); 62 g ai/ha): 0
Plant response rating, Rice (rice (Oryza sativa); 125 g ai/ha): 0
Plant response rating, Rice (rice (Oryza sativa); 250 g ai/ha): 0
Plant response rating, Sedge, Umbrella ([17]; 31 g ai/ha): 0
Plant response rating, Sedge, Umbrella ([17]; 62 g ai/ha): 0
Plant response rating, Sedge, Umbrella ([17]; 125 g ai/ha): 0
Plant response rating, Sedge, Umbrella ([17]; 250 g ai/ha): 0
Plant response rating, Ducksalad ([18]; 31 g ai/ha): 0
Plant response rating, Ducksalad ([18]; 62 g ai/ha): 0
Plant response rating, Ducksalad ([18]; 125 g ai/ha): 0
Plant response rating, Ducksalad ([18]; 250 g ai/ha): 0
Plant response rating, Barnyardgrass ([19]; 31 g ai/ha, scale 0 to 100): 0
Plant response rating, Barnyardgrass ([19]; 62 g ai/ha, scale 0 to 100): 0
Plant response rating, Barnyardgrass ([19]; 125 g ai/ha, scale 0 to 100): 0
Plant response rating, Barnyardgrass [19, 20]: 0

CC1(C)CC(S(=O)(=O)Cc2c(C(F)(F)F)nc3cnccn3c2=O)=NO1 [Compound 52]
Plant response rating, Barnyardgrass ([1]; 125 g ai/ha): 20
Plant response rating, Barnyardgrass ([1]; 500 g ai/ha): 80
Plant response rating, Crabgrass, Large ([2]; 125 g ai/ha): 20
Plant response rating, Crabgrass, Large ([2]; 500 g ai/ha): 80
Plant response rating, Foxtail, Giant ([3]; 125 g ai/ha): 40
Plant response rating, Foxtail, Giant ([3]; 500 g ai/ha): 90
Plant response rating, Morningglory ([4]; 125 g ai/ha): 0
Plant response rating, Morningglory ([4]; 500 g ai/ha): 0
Plant response rating, Pigweed ([5]; 125 g ai/ha): 0
Plant response rating, Pigweed ([5]; 500 g ai/ha): 0
Plant response rating, Velvetleaf ([6]; 125 g ai/ha): 0
Plant response rating, Velvetleaf ([6]; 500 g ai/ha): 0
Plant response rating, Wheat ([7]; 125 g ai/ha): 0
Plant response rating, Wheat ([7]; 500 g ai/ha): 0
Plant response rating, Corn (corn (Zea mays) [8]; 125 g ai/ha): 0
Plant response rating, Corn (corn (Zea mays) [8]; 500 g ai/ha): 0
Plant response rating, Barnyardgrass ([9]; 125 g ai/ha): 30
Plant response rating, Barnyardgrass ([9]; 500 g ai/ha): 90
Plant response rating, Crabgrass, Large ([10]; 125 g ai/ha): 20
Plant response rating, Crabgrass, Large ([10]; 500 g ai/ha): 50
Plant response rating, Foxtail, Giant ([11]; 125 g ai/ha): 60
Plant response rating, Foxtail, Giant ([11]; 500 g ai/ha): 80
Plant response rating, Morningglory ([12]; 125 g ai/ha): 0
Plant response rating, Morningglory ([12]; 500 g ai/ha): 30
Plant response rating, Pigweed ([13]; 125 g ai/ha): 0
Plant response rating, Pigweed ([13]; 500 g ai/ha): 0
Plant response rating, Velvetleaf ([14]; 125 g ai/ha): 0
Plant response rating, Velvetleaf ([14]; 500 g ai/ha): 0
Plant response rating, Wheat ([15]; 125 g ai/ha): 0
Plant response rating, Wheat ([15]; 500 g ai/ha): 30
Plant response rating, Corn (corn (Zea mays) [16]; 125 g ai/ha): 0
Plant response rating, Corn (corn (Zea mays) [16]; 500 g ai/ha): 0
Plant response rating, Rice (rice (Oryza sativa); 62 g ai/ha): 0
Plant response rating, Rice (rice (Oryza sativa); 250 g ai/ha): 0
Plant response rating, Sedge, Umbrella ([17]; 62 g ai/ha): 0
Plant response rating, Sedge, Umbrella ([17]; 250 g ai/ha): 0
Plant response rating, Ducksalad ([18]; 62 g ai/ha): 0
Plant response rating, Ducksalad ([18]; 250 g ai/ha): 0
Plant response rating, Barnyardgrass ([19]; 62 g ai/ha, scale 0 to 100): 0
Plant response rating, Barnyardgrass [19, 20]: 0
